Article PMC11325084, “Pharmacokinetics and tissue distribution of LN002, a new compound alternative oxidase inhibitor against Cryptosporidium in rats” (Frontiers in Pharmacology, 2024)

Assays:
[1] = Tissue distribution of LN002 after oral administration in rats; type: in vivo, Sprague–Dawley (SD) rats; conditions: oral 200 mg/kg; for Cmax / Tmax / half-life: both sexes, Sprague-Dawley, rat; for Cmax / Tmax / half-life / AUC0-24 h: SD rats
Method: Thirty SD rats (15 for each sex) were randomly and equally assigned to 5 groups (half male and half female). The rats in each group were euthanized with pentobarbital sodium (a dose of 180 mg/kg) at five different time points: 0.5, 2, 6, 12 and 24 h after oral administration at 200 mg/kg LN002. Subsequently, various tissues, including the heart, liver, spleen, lungs, kidneys, brain, muscles, small intestine, and intestinal contents, were promptly collected ([Verma et al., 2022]). The dissected tissues were rinsed with normal saline, dried with an absorbent paper, homogenized using a tissue homogenizer, and stored at a temperature of −20°C until further analysis.
Tissue samples and intestinal contents were accurately weighed to 0.5 ± 0.02 g in a 10 mL EP tube and added with 2 mL of extraction solvent (acetonitrile: methanol [2:1, v/v]). The extraction solvent was vortexed for 1 min and centrifuged at 6,000 rpm and 4°C for 10 min. The supernatant was transferred to a new test tube and vortexed after adding 2 mL of water. The sample was purified using solid-phase extraction (SPE) using methanol as the extraction solvent. The Poly-Sery MAX SPE Cartridge (Shanghai Anpu Experimental Technology Co., Ltd., Shanghai, China) was added with 3 mL of methanol to activate, 3 mL of water to rinse, and the abovementioned extraction solvent. Afterward, 2 mL of 10% methanol water was poured into extraction columns to elute impurities. Finally, 1.5 mL of methanol was added to elute the compound and collect the eluent. Twenty microliters of the eluent was passed through a 0.22 μm filter membrane and then injected into the HPLC system for analysis.
A Shimadzu LC-20A system (Shimadzu Technologies, Kyoto, Japan) equipped with a LabSolutions system (version 5.1) system was used for HPLC analysis. The separation process utilized an ARD-C18 column (250 mm × 4.6 mm, 5 µm) (Zhongpu Technology Co., Ltd., Fuzhou, China). The analytes were detected using a UV detector at 333 nm. The chromatographic conditions used an isocratic mobile phase that combines methanol (solvent A) and deionized water (solvent B) (75:25, v/v), and they were propelled through the column at a constant flow rate of 1 mL/min, ensuring uniform separation. The injection volume was 20 μL. The temperature of the column was set to 40°C.
Pharmacokinetic data were obtained via non-compartmental PK analysis of total concentration versus time profiles for plasma using Phoenix WinNonlin 8.2 (Certara, L.P., Princeton, NJ, United States). Statistical analysis and graphing were undertaken using GraphPad Prism 9.5 for Windows (GraphPad Software, Inc., La Jolla, CA, United States).

[2] = Stability of LN002 stock solution; type: physicochemical; conditions: for Stock solution stability, measured concentration: nominal concentration 1,000 ng/mL, n = 6, mean ± SD
Method: LN002 was dissolved in N,N-dimethylformamide, then mixed to make a concentration of 1 mg/mL standard solution, and stored at −20°C. By investigating the low, middle, and high-concentration stability of rat plasma, the liver and intestinal contents in six replicates at different storage conditions, autosampler, short-term, freeze and thaw, long-term stability, and stock solution stability evaluations were conducted.

[3] = intestinal contents, n = 6, mean ± SD

Cmax ([1]; brain, n = 6, mean ± SD): 456 ± 80.9 ng/g
Tmax ([1]; brain, n = 6, mean ± SD): 0.58 ± 0.19 h
half-life ([1]; brain, n = 6, mean ± SD): 5.2 ± 2.31 h
Cmax ([1]; heart, n = 6, mean ± SD): 972 ± 165 ng/g
Tmax ([1]; heart, n = 6, mean ± SD): 0.57 ± 0.11 h
half-life ([1]; heart, n = 6, mean ± SD): 6.82 ± 1.65 h
Cmax [1, 3]: 4.45e+06 ng/g
Tmax [1, 3]: 3.33 ± 1.6 h
half-life [1, 3]: 1.64 ± 0.01 h
Cmax ([1]; intestine, n = 6, mean ± SD): 607000 ng/g
Tmax ([1]; intestine, n = 6, mean ± SD): 2.67 ± 1.49 h
half-life ([1]; intestine, n = 6, mean ± SD): 5.48 ± 1.48 h
Tmax ([1]; kidney, n = 6): 0.5 h
Cmax ([1]; kidney, n = 6, mean ± SD): 561 ± 135 ng/g
half-life ([1]; kidney, n = 6, mean ± SD): 5.03 ± 1.52 h
Cmax ([1]; liver, n = 6, mean ± SD): 478 ± 157 ng/g
Tmax ([1]; liver, n = 6, mean ± SD): 0.67 ± 0.19 h
half-life ([1]; liver, n = 6, mean ± SD): 5.54 ± 0.66 h
Cmax ([1]; lung, n = 6, mean ± SD): 8700 ± 1410 ng/g
Tmax ([1]; lung, n = 6, mean ± SD): 2.09 ± 0.43 h
half-life ([1]; lung, n = 6, mean ± SD): 5.43 ± 1.6 h
Cmax ([1]; muscle, n = 6, mean ± SD): 3980 ± 589 ng/g
Tmax ([1]; muscle, n = 6, mean ± SD): 0.58 ± 0.19 h
half-life ([1]; muscle, n = 6, mean ± SD): 6.3 ± 2.71 h
Tmax ([1]; spleen, n = 6): 0.5 h
Cmax ([1]; spleen, n = 6, mean ± SD): 645 ± 187 ng/g
half-life ([1]; spleen, n = 6, mean ± SD): 5.8 ± 1.93 h
AUC0-24 h ([1]; brain, n = 6, mean ± SD): 1328.60 ± 176.19 h⋅ng/g
AUC0-24 h ([1]; heart, n = 6, mean ± SD): 3855.84 ± 323.04 h⋅ng/g
AUC0-24 h [1, 3]: 35080673.50 ± 644,065.57 h⋅ng/g
AUC0-24 h ([1]; intestine, n = 6, mean ± SD): 2185750.70 ± 149,399.23 h⋅ng/g
AUC0-24 h ([1]; kidney, n = 6, mean ± SD): 1781.24 ± 453.85 h⋅ng/g
AUC0-24 h ([1]; liver, n = 6, mean ± SD): 4051.62 ± 586.44 h⋅ng/g
AUC0-24 h ([1]; lung, n = 6, mean ± SD): 84,344.09 ± 9677.76 h⋅ng/g
AUC0-24 h ([1]; muscle, n = 6, mean ± SD): 12,634.31 ± 2366.24 h⋅ng/g
AUC0-24 h ([1]; spleen, n = 6, mean ± SD): 2280.55 ± 418.06 h⋅ng/g
Stock solution stability, measured concentration ([2]; 15 d): 0.941 ± 0.091
Stock solution stability, measured concentration ([2]; 30 d): 0.924 ± 0.051
Degradation of stock solution (in words) ([2]; stock solution, 15 d and 30 d): no appreciable degradation
Structure (SMILES): N#C/C(=C\c1c[nH]nc1-c1ccccc1)c1nn(-c2ccccc2)c(N)c1C#N [LN002, 5-amino-3-[1-cyano-2-(3-phenyl-4-vinopyrazole))-1-phenyl-4-vinopyrazole]
Rank order of concentration in tissues and intestinal contents ([1]; rats): intestinal contents, followed by the small intestine, lung, muscle, heart, liver, spleen, kidney, and brain
Detection in tissues at the last time point (in words) ([1]; rats, 24 h): detected at 24 h in all tissues and intestinal contents
